# Data as given in patent US20040220268A1, “Compound that directly stimulates phospholipase C activity” (priority 2003, published 2004).
# Experiments:
# human neutrophils = assay: [Ca2+]i measurement with fura-2 in neutrophils; assay type: cell-based
# Experimental: Fura-2-loaded neutrophils were stimulated with m-3M3FBS or o-3M3FBS at 25 μM in extracellular calcium containing 2 mM or extracellular free calcium conditions. The results shown are representative of three independent experiments (A). Prepared neutrophils were loaded with fura-2 and then stimulated with 25 μM of m-3M3FBS in the absence or in the presence of 4 μM of U-73122 or U-73343 (B). Changes in 340 nm/380 nm excitation ratio were monitored, and converted to [Ca^2+]i levels. Data are presented as means ±S. E. M. of three independent experiments.
# Freshly prepared human neutrophils were incubated in serum free RPMI 1640 medium with 3 μM of fura-2/AM at 37° C. for 30 min with continuous stirring. After washing with serum free RPMI 1640 medium, the cells were suspended in serum free RPMI containing 250 μM of sulfinpyrazone to prevent dye leakage. About 2×10^6 cells were suspended in Ca^2+ free Locke's solution (158.4 mM NaCl, 5.6 mM KCl, 1.2 mM MgCl2, 5 mM HEPES pH 7.3, 10 mM glucose, and 0.2 mM EGTA) for each measurement. Changes in the fluorescence ratio were measured at an emission wavelength of 500 nm for dual excitation wavelengths at 340 nm and 380 nm. The calibration of the fluorescence ratio versus [Ca^2+]i was performed as described by Grynkiewicz (Grynkiewicz et al., 1985).
# PLC β3 = target: T1, PLC β3 (Homo sapiens, UniProt Q01970); assay: Phosphoinositide hydrolysis in vitro; assay type: biochemical; conditions: 25 μM; purified isozyme
# T1 sequence (Q01970 1-1234): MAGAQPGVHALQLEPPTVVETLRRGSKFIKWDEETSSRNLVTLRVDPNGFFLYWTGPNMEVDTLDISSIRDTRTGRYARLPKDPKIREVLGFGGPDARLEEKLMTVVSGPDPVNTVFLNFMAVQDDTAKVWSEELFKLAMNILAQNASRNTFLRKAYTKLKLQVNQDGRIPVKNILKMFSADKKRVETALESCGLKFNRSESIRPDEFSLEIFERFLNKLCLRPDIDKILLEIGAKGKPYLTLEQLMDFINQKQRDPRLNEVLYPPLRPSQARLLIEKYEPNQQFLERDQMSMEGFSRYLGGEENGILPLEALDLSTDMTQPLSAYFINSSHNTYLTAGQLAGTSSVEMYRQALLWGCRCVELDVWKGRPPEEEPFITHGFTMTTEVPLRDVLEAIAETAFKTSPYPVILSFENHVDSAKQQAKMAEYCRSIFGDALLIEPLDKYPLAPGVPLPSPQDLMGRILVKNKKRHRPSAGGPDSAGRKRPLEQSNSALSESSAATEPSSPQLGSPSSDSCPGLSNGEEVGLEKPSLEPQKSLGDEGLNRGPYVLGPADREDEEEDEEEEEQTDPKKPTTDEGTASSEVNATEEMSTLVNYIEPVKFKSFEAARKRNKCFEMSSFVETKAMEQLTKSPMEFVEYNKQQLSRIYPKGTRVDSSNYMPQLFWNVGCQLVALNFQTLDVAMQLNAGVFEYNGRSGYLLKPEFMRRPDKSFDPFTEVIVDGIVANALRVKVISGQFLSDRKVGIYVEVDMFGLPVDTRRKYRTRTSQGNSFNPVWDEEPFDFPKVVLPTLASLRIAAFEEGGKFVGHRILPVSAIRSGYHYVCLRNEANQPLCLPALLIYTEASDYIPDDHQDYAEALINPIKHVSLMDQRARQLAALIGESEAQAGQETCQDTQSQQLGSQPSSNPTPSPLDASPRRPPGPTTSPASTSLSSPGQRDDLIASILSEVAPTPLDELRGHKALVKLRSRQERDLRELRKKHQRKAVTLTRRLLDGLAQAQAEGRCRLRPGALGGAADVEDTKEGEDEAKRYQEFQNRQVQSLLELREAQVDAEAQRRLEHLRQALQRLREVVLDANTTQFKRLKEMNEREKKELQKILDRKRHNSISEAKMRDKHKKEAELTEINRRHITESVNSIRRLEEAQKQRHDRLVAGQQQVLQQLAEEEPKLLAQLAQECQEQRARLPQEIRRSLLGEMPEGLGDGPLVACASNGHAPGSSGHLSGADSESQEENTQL
# Experimental: The hydrolyzing activity of PtdIns-4,5-P2 was measured on mixed phospholipid vesicles containing 120 μM phosphatidylethanolamine, 30 μM PtdIns-4,5-P2, and 1 μCi/ml [3H] PtdIns-4,5-P2. Purified PLC β2, substrates, and the chemicals (2.5, 5, 10, 20, and 25 μM of m-3M3FBS or of o-3M3FBS) were coincubated (A), 25 μM of m-3M3FBS or o-3M3FBS, and phospholipid substrates were mixed with purified PLC β3, γ1, 2, or δ1 (B). Reactions were performed for 10 min at 37° C. in a 200 μl reaction mixture containing lipid micelles (5 μM [^3H] PtdIns-4,5-P2, 20,000 cpm). Reactions were stopped by adding 1 ml of CHCl3:CH3OH:HCl (50:50:0.3, v/v/v). Inositol trisphosphates were extracted with 0.5 ml of 1 M HCl/5 mM EGTA, and the radioactivity in the upper aqueous phase was measured. Data are presented as means ±S. E. M. of three independent experiments (A, B).
# PLC activity was assayed using [^3H] PtdIns-4,5-P2 as a substrate (Min et al., 1993). PtdIns-4,5-P2-hydrolyzing activity was measured with mixed phospholipid micelles containing 120 μM phosphatidylethanolamine, 30 μM PtdIns-4,5-P2, and 1 μCi/ml [^3H] PtdIns-4,5-P2. The lipids, in chloroform, were dried under a stream of nitrogen gas, suspended in assay buffer (20 mM HEPES pH 7.0, 120 mM NaCl, 2 mM MgCl2, 40 or 100 μM CaCl2, and 1 mg/ml bovine albumin serum (Bayer, Leverkusen, Germany)), and sonicated. All proteins added to the reaction mixture were dialyzed overnight against the assay buffer. Incubation was performed for 10 min at 37° C. in a 200 μl reaction mixture containing lipid micelles (5 μM [3H] PtdIns-4,5-P2, 20,000 cpm). The reaction was stopped by adding 2 ml of CHCl3: CH3OH: HCl (50: 50: 0.3, v/v/v). The inositol triphosphates were extracted with 0.5 ml of 1 N HCl, and radioactivities in the upper aqueous phase were measured.
# [1] = 25 μM, extracellular Ca2+ at physiologic levels (2 mM)
SMILES,[Ca2+]i increase (human neutrophils; [1]),"[Ca2+]i increase (human neutrophils; 25 μM, extracellular calcium-depleted condition)","concentration of saturated maximal activity of [Ca2+]i release (human neutrophils; concentration dependent, data not shown) [µM]","calcium increase (human neutrophils; human neutrophils, 25 μM)",activity of PLC beta3 (PLC β3)
"Cc1cc(C)c(S(=O)(=O)Nc2cccc(C(F)(F)F)c2)c(C)c1 [m-3M3FBS, 2,4,6-Trimethyl-N-(meta 3-trifluoromethyl-phenyl)-benzenesulfonamide]",caused a [Ca^2+]i increase,evoked a [Ca^2+]i increase,50,induced calcium increase,augmented the activity
"Cc1cc(C)c(S(=O)(=O)Nc2ccccc2C(F)(F)F)c(C)c1 [o-3M3FBS, 2,4,6-Trimethyl-N-(ortho 3-trifluoromethyl-phenyl)-benzenesulfonamide, reference compound]",failed to elicit this response,–,–,–,did not affect
